Measured values taken from patent publication US20230151025A1, “SUBSTITUTED THIAZOLOPYRIDINES, SALTS THEREOF AND THEIR USE AS HERBICIDALLY ACTIVE SUBSTANCES” (Bayer Aktiengesellschaft, priority 2020, published 2023).

Tests used:
Type in all cases: in vivo
[1] = system: Amaranthus retroflexus (AMARE); test: Herbicidal post-emergence action (D), 320 g/ha; details: ca. 3 weeks
Procedure, shortened: (§1)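 Weeds sown in sandy loam and greenhouse-grown for 2 to 3 weeks, then sprayed at single-leaf stage with WP or EC formulations in water plus 0.5% additive at 600 l water/ha. After ca. 3 weeks, injury scored visually versus untreated controls: 0% = as control, 100% = plants dead.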

[2] = system: Polygonum convolvulus (POLCO); test: Herbicidal post-emergence action (D), 320 g/ha; details: ca. 3 weeks
Procedure, shortened: as §1

[3] = system: Alopecurus myosuroides (ALOMY); test: Herbicidal post-emergence action (D), 320 g/ha; details: ca. 3 weeks
Procedure, shortened: as §1

[4] = system: Echinochloa crus-galli (ECHCG); test: Herbicidal post-emergence action (D), 320 g/ha; details: ca. 3 weeks
Procedure, shortened: as §1

Setaria viridis (SETVI) [5] = test: Herbicidal post-emergence action (D), 320 g/ha; details: ca. 3 weeks
Procedure, shortened: as §1

Veronica persica (VERPE) [6] = test: Herbicidal post-emergence action (D), 320 g/ha; details: ca. 3 weeks
Procedure, shortened: as §1

Lolium rigidum (LOLRI) [7] = test: Herbicidal pre-emergence action (C), 320 g/ha; details: ca. 3 weeks
Procedure, shortened: (§2)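 Seeds sown in sandy loam and covered with soil; compounds formulated as WP or EC were sprayed onto the covering soil as aqueous suspension/emulsion with 0.5% additive at 600 l water/ha. Pots kept in greenhouse; damage graded visually after ca. 3 weeks versus untreated controls (0% = as control, 100% = plants dead).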

Viola tricolor (VIOTR) = test: Herbicidal pre-emergence action (C), 320 g/ha; details: ca. 3 weeks
Procedure, shortened: as §2

[8] = system: Amaranthus retroflexus (AMARE); test: Herbicidal pre-emergence action (C), 320 g/ha; details: ca. 3 weeks
Procedure, shortened: as §2

[9] = system: Matricaria inodora (MATIN); test: Herbicidal pre-emergence action (C), 320 g/ha; details: ca. 3 weeks
Procedure, shortened: as §2

[10] = system: Alopecurus myosuroides (ALOMY); test: Herbicidal pre-emergence action (C), 320 g/ha; details: ca. 3 weeks
Procedure, shortened: as §2

[11] = system: Echinochloa crus-galli (ECHCG); test: Herbicidal pre-emergence action (C), 320 g/ha; details: ca. 3 weeks
Procedure, shortened: as §2

Setaria viridis (SETVI) [12] = test: Herbicidal pre-emergence action (C), 320 g/ha; details: ca. 3 weeks
Procedure, shortened: as §2

Veronica persica (VERPE) [13] = test: Herbicidal pre-emergence action (C), 320 g/ha; details: ca. 3 weeks
Procedure, shortened: as §2

Lolium rigidum (LOLRI) [14] = test: Herbicidal pre-emergence action (A), 1280 g/ha; details: visual grading after ca. 3 weeks vs untreated controls, 100% = plants have died off, 0% = as control plants
Procedure, shortened: (§3)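 Visual percent damage scored about 3 weeks after treatment relative to untreated pots (100% = complete kill, 0% = no effect). Compounds, as wettable powder or emulsifiable concentrate plus 0.5% additive in 600 l water/ha, were applied to the soil surface over freshly sown seeds in sandy loam, greenhouse-grown.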

[15] = system: Amaranthus retroflexus (AMARE); test: Herbicidal pre-emergence action (A), 1280 g/ha; details: visual grading after ca. 3 weeks vs untreated controls
Procedure, shortened: as §3

[16] = system: Matricaria inodora (MATIN); test: Herbicidal pre-emergence action (A), 1280 g/ha; details: visual grading after ca. 3 weeks vs untreated controls
Procedure, shortened: as §3

[17] = system: Alopecurus myosuroides (ALOMY); test: Herbicidal pre-emergence action (A), 1280 g/ha; details: visual grading after ca. 3 weeks vs untreated controls, 100% = plants have died off, 0% = as control plants
Procedure, shortened: as §3

[18] = system: Kochia scoparia (KCHSC; Bassia scoparia); test: Herbicidal pre-emergence action (A), 1280 g/ha; details: visual grading after ca. 3 weeks vs untreated controls
Procedure, shortened: as §3

[19] = system: Echinochloa crus-galli (ECHCG); test: Herbicidal pre-emergence action (A), 1280 g/ha; details: visual grading after ca. 3 weeks vs untreated controls, 100% = plants have died off, 0% = as control plants
Procedure, shortened: as §3

Stellaria media (STEME) [20] = test: Herbicidal pre-emergence action (A), 1280 g/ha; details: visual grading after ca. 3 weeks vs untreated controls
Procedure, shortened: as §3

Setaria viridis (SETVI) [21] = test: Herbicidal pre-emergence action (A), 1280 g/ha; details: visual grading after ca. 3 weeks vs untreated controls
Procedure, shortened: as §3

Poa annua (POAAN) [22] = test: Herbicidal pre-emergence action (A), 1280 g/ha; details: visual grading after ca. 3 weeks vs untreated controls, 100% = plants have died off, 0% = as control plants
Procedure, shortened: as §3

Veronica persica (VERPE) [23] = test: Herbicidal pre-emergence action (A), 1280 g/ha; details: visual grading after ca. 3 weeks vs untreated controls
Procedure, shortened: as §3

[24] = system: Amaranthus retroflexus (AMARE); test: Herbicidal post-emergence action (B), 1280 g/ha; details: rated visually after about 3 weeks vs untreated controls
Procedure, shortened: (§4)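 Compounds formulated as wettable powder or emulsion concentrate, with 0.5% additive, sprayed at 600 l/ha onto one-leaf-stage plants grown in sandy loam for 2 to 3 weeks. Damage rated visually against untreated plants roughly 3 weeks later; 0% = like control, 100% = plants died.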

[25] = system: Kochia scoparia (KCHSC; Bassia scoparia); test: Herbicidal post-emergence action (B), 1280 g/ha
Procedure, shortened: as §4

[26] = system: Echinochloa crus-galli (ECHCG); test: Herbicidal post-emergence action (B), 1280 g/ha; details: rated visually after about 3 weeks vs untreated controls
Procedure, shortened: as §4

Stellaria media (STEME) [27] = test: Herbicidal post-emergence action (B), 1280 g/ha
Procedure, shortened: as §4

Poa annua (POAAN) [28] = test: Herbicidal post-emergence action (B), 1280 g/ha; details: rated visually after about 3 weeks vs untreated controls
Procedure, shortened: as §4

Veronica persica (VERPE) [29] = test: Herbicidal post-emergence action (B), 1280 g/ha
Procedure, shortened: as §4

[30] = system: Abutilon theophrasti (ABUTH); test: Herbicidal post-emergence action (D), 320 g/ha; details: ca. 3 weeks
Procedure, shortened: as §1

[31] = system: Digitaria sanguinalis (DIGSA); test: Herbicidal pre-emergence action (A), 1280 g/ha; details: visual grading after ca. 3 weeks vs untreated controls, 100% = plants have died off, 0% = as control plants
Procedure, shortened: as §3

[32] = system: Matricaria inodora (MATIN); test: Herbicidal post-emergence action (B), 1280 g/ha; details: rated visually after about 3 weeks vs untreated controls
Procedure, shortened: as §4

[33] = system: Digitaria sanguinalis (DIGSA); test: Herbicidal post-emergence action (B), 1280 g/ha; details: rated visually after about 3 weeks vs untreated controls
Procedure, shortened: as §4

[34] = system: Alopecurus myosuroides (ALOMY); test: Herbicidal post-emergence action (B), 1280 g/ha; details: rated visually after about 3 weeks vs untreated controls
Procedure, shortened: as §4

Setaria viridis (SETVI) [35] = test: Herbicidal post-emergence action (B), 1280 g/ha; details: rated visually after about 3 weeks vs untreated controls
Procedure, shortened: as §4

[36] = system: Abutilon theophrasti (ABUTH); test: Herbicidal post-emergence action (B), 1280 g/ha; details: rated visually after about 3 weeks vs untreated controls
Procedure, shortened: as §4

[37] = system: Polygonum convolvulus (POLCO); test: Herbicidal pre-emergence action (C), 320 g/ha; details: ca. 3 weeks
Procedure, shortened: as §2

[38] = system: Abutilon theophrasti (ABUTH); test: Herbicidal pre-emergence action (C), 320 g/ha; details: ca. 3 weeks
Procedure, shortened: as §2

Avena fatua = test: Herbicidal pre-emergence action (C), 320 g/ha; details: ca. 3 weeks
Source text: Seeds of mono- and dicotyledonous weed plants and crop plants were sown, in plastic or organic planting pots, in sandy loam and covered with soil. The compounds according to the invention, formulated in the form of wettable powders (WP) or as emulsifiable concentrates (EC), were applied to the surface of the covering soil as aqueous suspension or emulsion, with the addition of 0.5% of an additive, at an application rate of 600 l of water/ha (converted).
Following treatment, the pots were placed in a greenhouse and kept under optimum growth conditions for the test plants. The visual grading of the damage to the test plants was carried out after ca. 3 weeks in comparison to untreated controls (herbicidal effect in percent (%): 100% effect=plants have died off, 0% effect=as control plants).
Tables C1 to C13 below show the effects of selected compounds of the general formula (I) according to table 1 on various harmful plants and an application rate corresponding to 320 g/ha obtained by the experimental procedure mentioned above.

Compound	herbicidal effect AMARE [1] [%]	herbicidal effect ALOMY [3] [%]	herbicidal effect ECHCG [4] [%]	herbicidal effect SETVI (Setaria viridis (SETVI) [5]) [%]	herbicidal effect VERPE (Veronica persica (VERPE) [6]) [%]	herbicidal effect LOLRI (Lolium rigidum (LOLRI) [7]) [%]	herbicidal effect AMARE [8] [%]	herbicidal effect MATIN [9] [%]	herbicidal effect ECHCG [11] [%]	herbicidal effect AMARE [15] [%]	herbicidal effect MATIN [16] [%]	herbicidal effect STEME (Stellaria media (STEME) [20]) [%]	herbicidal effect SETVI (Setaria viridis (SETVI) [21]) [%]	POAAN, herbicidal effect in percent (%) (Poa annua (POAAN) [22])	herbicidal activity AMARE [24] [%]	herbicidal effect KCHSC [25] [%]	herbicidal activity ECHCG [26] [%]	herbicidal effect STEME (Stellaria media (STEME) [27]) [%]	herbicidal activity POAAN (Poa annua (POAAN) [28]) [%]	herbicidal effect VERPE (Veronica persica (VERPE) [29]) [%]	further results
CC(C)c1cc2scnc2nc1-c1ccccc1F [Example I-184]	80	90	80	90	90	100	90	80	100	90	90	90	100	100	100	90	90	90	90	90	herbicidal effect POLCO [2]: 80%; herbicidal effect VIOTR (Viola tricolor (VIOTR)): 80%; herbicidal effect ALOMY [10]: 100%; herbicidal effect SETVI (Setaria viridis (SETVI) [12]): 100%; herbicidal effect VERPE (Veronica persica (VERPE) [13]): 80%; LOLRI, herbicidal effect in percent (%) (Lolium rigidum (LOLRI) [14]): 100%; ALOMY, herbicidal effect in percent (%) [17]: 90%; herbicidal effect KCHSC [18]: 90%; ECHCG, herbicidal effect in percent (%) [19]: 100%; herbicidal effect VERPE (Veronica persica (VERPE) [23]): 90%
CCc1cc2sc(OC)nc2nc1-c1ccccc1C [Example I-094]					90				80	100	100	100	100	100	100	100	100	100	100	100	herbicidal effect ABUTH [30]: 80%; DIGSA, herbicidal effect in percent (%) [31]: 100%; herbicidal activity MATIN [32]: 100%; herbicidal activity DIGSA [33]: 100%; herbicidal activity ALOMY [34]: 100%; herbicidal activity SETVI (Setaria viridis (SETVI) [35]): 100%; herbicidal activity ABUTH [36]: 100%
Cc1cscc1-c1nc2ncsc2cc1C [Example I-193]	80	90	80	80		100	90	80	100	90	90	100	100	100	100	90	100	90	100	90	herbicidal effect POLCO [37]: 80%; herbicidal effect ALOMY [10]: 100%; herbicidal effect SETVI (Setaria viridis (SETVI) [12]): 100%; herbicidal effect VERPE (Veronica persica (VERPE) [13]): 80%; herbicidal effect ABUTH [38]: 80%; LOLRI, herbicidal effect in percent (%) (Lolium rigidum (LOLRI) [14]): 100%; ALOMY, herbicidal effect in percent (%) [17]: 90%; herbicidal effect KCHSC [18]: 90%; ECHCG, herbicidal effect in percent (%) [19]: 100%; herbicidal effect VERPE (Veronica persica (VERPE) [23]): 90%; herbicidal effect AVEFA (Avena fatua): 80%; herbicidal activity ABUTH [36]: 90%
